These results are taken from patent US20060258589A1, “Methods for enhancing radiation therapy” (IGF Oncology, LLC, priority 2004, published 2006).

In test [1] the test system is LnCap, MiaPaCa, H226, and A549 tumors. Description: In vivo assays: growth of tumor volume after irradiation of subcutaneous tumors in nude mice. The following applies: male nude mice; treated 30 minutes before 15 Gy X-rays; followed for 3 weeks. As to the method: LnCap, MiaPaCa, H226, and A549 cells are grown in culture. Cells are harvested using 0.25% trypsin, washed, suspended in Dulbecco's PBS, and counted. 1×10^6 cells are injected subcutaneously into the hind thigh of male nude mice. Tumors are grown to 250 mm^3 in ˜21 days. Tumors are measured with a caliper, and the tumor size is calculated by the formula a^2b/2, where a and b are the shorter and longer diameters of the tumor, respectively. When the tumors reach 250 mm^3, the mice are treated with insulin (5 or 40 μg/kg), IGF-1 (5 or 100 μg/kg) or insulin+glucose (5 g glucose/kg), or growth hormone (50 or 500 μg/kg), or saline control 30 minutes before radiation treatment. The mice are anesthetized immediately before radiation treatment, and then the tumor-bearing leg is irradiated with X-rays at 1.4 Gy/minute, receiving a dose of 15 Gy. The growth of tumor volume in the mice after irradiation is followed for 3 weeks.

Test [2] deals with MiaPaCa, LnCap, H226 and A549 cells. Description: In vitro assays: surviving fraction (colony formation) of cancer cells after X-ray irradiation. The test is classed as cell-based, human. The settings on record: hormone added before 200 rads X-rays; for sensitization to radiation: exponential phase cells; for cell killing by radiation: plateau-phase cells, at least some concentrations and times. As to the method:
MiaPaCa (a human pancreatic cancer cell line), LnCap (a human prostate cancer cell line), H226 and A549 (two human lung cancer cell lines) are grown in monolayer cultures in McCoy's 5A medium containing 10% fetal bovine serum and buffered with 2.0 g/L sodium bicarbonate and 0.02 M Hepes, pH 7.4. The cells are at seeded at 6×10^4 cells per T30 flask. On day 3 the medium is changed. The cells are irradiated at either 4 days (exponential cells) or 7 days (plateau-phase cells). Twenty minutes before, 2 hours before, or immediately before irradiation, insulin (0.01, 0.1, or 1 μg/ml) or IGF-1 (3, 20, or 150 ng/ml) is added to the medium. Control cells have no added hormone. The cells are then irradiated with 200 rads X-rays. After irradiation, the cells are allowed to recover in the used medium for 60 minutes.
The cells are then typsinized and plated in fresh medium. The surviving fraction of a specific number of plated cells is determined by staining colonies with methylene blue after 7-10 days of growth.
Exponential-phase and plateau-phase cells are then treated with insulin and IGF-1 separately and together at their experimentally determined optimal concentrations immediately before, 15 minutes before, and 2 hours before irradiation with a range of radiation doses. Again, the cells are trypsinized and plated, and the percent surviving is determined.
Exponential- and plateau-phase cells are then treated with insulin at the optimal concentration in combination with 30 mM glucose.

The test system of test [3] is breast cancer cells. The settings on record: tissue culture; methotrexate killing; cited from earlier work.
The conditions of test [4]: another study; cited from earlier work.
For test [5], the system named is cancer cells. The following applies: Ciftci 2003; cited from earlier work.
In test [6] the test system is soluble IGF-1 binding proteins. The settings on record: compared to native IGF-1; Francis 1992, Tomas 1993; cited from earlier work.

Take growth hormone: the “effectiveness of radiation therapy (growth of tumor volume)” value (“effectiveness of radiation therapy” below) in test [1] was “enhance the effectiveness of radiation therapy”.
As to insulin, in test [2], the sensitization to radiation entry is “sensitized to radiation” and the “cell killing by radiation” value is “increase cell killing by radiation”. Besides, the “effectiveness of radiation therapy” value in test [1] is “enhance the effectiveness of radiation therapy”. For the same molecule, the “enhancement of the killing of breast cancer cells” value in test [3] is reported as “up to 10,000 fold”. Also, the “enhancement of uptake of methotrexate” value in test [4] is 2 factor.
Take insulin-like growth factor-1 [IGF-1]: in test [2], the sensitization to radiation entry is given as “sensitized to radiation” and the “cell killing by radiation” value is “increase cell killing by radiation”. Moreover, in test [1], the “effectiveness of radiation therapy” value was “enhance the effectiveness of radiation therapy”. In addition, the “proportion of cells in the G2 and M phases of the cell cycle” value in test [5] is “moves a greater proportion of the cells into the G2 and M phases”.

B1: LONG-R3-IGF-1: variant IGF-1 with reduced binding affinity for the soluble IGF-1 binding proteins (SEQ ID NO:1) (protein)
chain: MFPAMPLSSLFVNGPRTLCGAELVDALQFVCGDRGFYFNKPTGYSSSRRAPQTGIVDECCFRSCDLRRLEMYCAPLKPAKSA
modifications: LONG-R3-IGF-1 synthetic variant of IGF-1
In the case of B1, in test [6], the “binding affinity for the soluble IGF-1 binding proteins” value is on record as “reduced binding affinity”.
